In article PMC11073699, “Odorant receptors for floral- and plant-derived volatiles in the yellow fever mosquito, Aedes aegypti (Diptera: Culicidae)” (PLOS ONE, 2024):
Values joined by “and” are separate entries in the source; they are usually repeats but may differ in a detail not shown here. Identical values can stand only once.

Tests used:
Assay type in all cases: cell-based
AaegOR11 = target: T1, AaegOR11 (Aedes aegypti, UniProt Q16PN4); experiment: Two-electrode voltage clamp of Xenopus laevis oocytes expressing AaegOR11/Orco (blends, unitary compounds, concentration-response); conditions: for Normalized response, Average, unitary compounds of blend Terpenes 3: average over oocytes (9; fenchones 6); for Raw data (Responses in nA), unitary compounds of blend Terpenes 3: individual oocytes 1-9 (replicates); for Normalized response, unitary compounds of blend Terpenes 3: individual oocytes, normalized to cis-Decahydro-1-napthol = 100; for Raw Data (Responses in nA), concentration-response: oocytes 1-9
T1 sequence (Q16PN4 1-420): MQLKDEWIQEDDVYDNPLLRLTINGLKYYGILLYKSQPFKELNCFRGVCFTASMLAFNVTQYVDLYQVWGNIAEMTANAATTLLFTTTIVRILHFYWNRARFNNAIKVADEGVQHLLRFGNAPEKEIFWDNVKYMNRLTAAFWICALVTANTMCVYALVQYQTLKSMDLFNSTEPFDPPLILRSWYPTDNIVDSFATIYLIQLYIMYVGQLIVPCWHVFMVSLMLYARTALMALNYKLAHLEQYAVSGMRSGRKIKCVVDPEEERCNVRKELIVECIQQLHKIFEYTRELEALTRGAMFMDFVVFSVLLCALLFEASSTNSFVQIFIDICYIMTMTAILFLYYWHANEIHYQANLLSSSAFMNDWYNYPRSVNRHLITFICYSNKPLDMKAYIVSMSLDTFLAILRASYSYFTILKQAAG
T1 sequence (Q178U6 1-478 partner): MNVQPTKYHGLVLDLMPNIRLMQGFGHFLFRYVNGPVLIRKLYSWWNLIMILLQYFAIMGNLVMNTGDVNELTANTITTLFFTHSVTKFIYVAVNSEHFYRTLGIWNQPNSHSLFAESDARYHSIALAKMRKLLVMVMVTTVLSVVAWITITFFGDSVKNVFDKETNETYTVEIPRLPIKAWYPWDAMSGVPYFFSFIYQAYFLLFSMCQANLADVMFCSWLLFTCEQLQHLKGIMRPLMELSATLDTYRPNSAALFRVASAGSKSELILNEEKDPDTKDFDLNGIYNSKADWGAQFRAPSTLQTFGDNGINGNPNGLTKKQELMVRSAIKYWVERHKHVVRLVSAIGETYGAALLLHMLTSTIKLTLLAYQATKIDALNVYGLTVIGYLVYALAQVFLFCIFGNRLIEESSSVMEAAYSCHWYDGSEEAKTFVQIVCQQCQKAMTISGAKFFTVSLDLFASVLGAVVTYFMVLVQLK
From the text: (§1) The coding regions of ten AaegOR genes of interest (S3 File) and AaegOrco were synthesized by Twist Bioscience (San Francisco, CA, USA) and cloned into the pENTR plasmid. The Gateway LR directional cloning system (Invitrogen Corp., Carlsbad, CA, USA) was utilized to subclone AaegOR coding regions into the pSP64t-RFA oocyte expression plasmid. Plasmids were purified using the GeneJet Plasmid Miniprep Kit (ThermoFisher Scientific, Waltham, MA, USA). Purified plasmids were sequenced in both directions to confirm coding regions.
(§2) Chemical compounds (S6 File) used in the deorphanization of AaegORs were purchased from Acros Organics (Morris, NJ, USA), Alfa Aesar (Ward Hill, MA, USA), and ThermoFisher Scientific (Waltham, MA, USA) at the highest purity available. Compounds were stored as 1M stocks in 100% DMSO. Serial dilutions of each compound were prepared in 10% DMSO and blended by chemical class.
(§3) pSP64t-RFA: AaegOR clones were linearized using Xbal, and cRNAs were synthesized using the mMESSAGE mMACHINE ® SP6 kit (Life Technologies, Carlsbad, CA, USA). Xenopus laevis stage V-VII oocytes purchased from Xenopus1 (Dexter, MI, USA) were stored at 18°C in Incubation medium (ND96 96 with 5% dialyzed horse serum, 50μg/mL gentamycin, 100μg/mL streptomycin, 100μg/mL penicillin, and 550μg/mL sodium pyruvate). 30nL of cRNA was injected into multiple oocytes using a microinjection syringe pump (World Precision Instruments, Sarasota, FL, USA) maintained at 18°C for 48–72 hrs. Odorant blends were perfused across individual oocytes for 10–15 seconds, held at a resting membrane potential of -80 mV using an OC-725C oocyte clamp (Warner Instruments, LLC, Hamden, CT, USA). Induced currents were measured indirectly using the two-electrode voltage clamp technique (TEVC). Following each stimulus, currents were allowed to return to baseline before further stimulation. Data was captured using the Digidata 1550 B digitizer and PClamp10 software (Molecular Devices, San Jose, CA, USA). Concentration-response curves were generated by perfusing unitary odorants over oocytes at increasing concentrations from [10^-3M] to [10^-9M]. Data were analyzed using GraphPad Prism 8 (GraphPad Software Inc., La Jolla, CA, USA). At least two biological replicates were conducted at each concentration and for each compound. Data for at least seven oocytes responding to each compound was analyzed (S7 File).

AaegOR8 = target: T2, AaegOR8 (Aedes aegypti, UniProt Q16MN0); experiment: Two-electrode voltage clamp of Xenopus laevis oocytes expressing AaegOR8/Orco (blends, unitary compounds, concentration-response); conditions: Alcohols 2 unitary compounds
T2 sequence (Q16MN0 32-422): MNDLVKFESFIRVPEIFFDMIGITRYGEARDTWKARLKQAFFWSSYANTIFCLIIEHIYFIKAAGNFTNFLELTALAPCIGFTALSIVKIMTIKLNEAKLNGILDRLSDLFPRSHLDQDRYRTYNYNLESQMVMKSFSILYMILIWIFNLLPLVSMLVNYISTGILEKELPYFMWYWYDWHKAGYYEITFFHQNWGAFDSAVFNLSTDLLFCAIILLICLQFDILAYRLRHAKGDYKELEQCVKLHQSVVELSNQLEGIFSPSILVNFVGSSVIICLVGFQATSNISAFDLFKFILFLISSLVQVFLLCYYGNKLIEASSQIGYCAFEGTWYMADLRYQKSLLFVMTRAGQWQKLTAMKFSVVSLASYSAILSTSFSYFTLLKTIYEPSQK
T2 sequence (Q178U6 1-478 partner): T1 sequence (Q178U6 1-478 partner)
From the text: as §1, §2, §3

AaegOR15 = target: T3, AaegOR15 (Aedes aegypti, UniProt A0A6B9QIR2); experiment: Two-electrode voltage clamp of Xenopus laevis oocytes expressing AaegOR15/Orco (blends, unitary compounds, concentration-response); conditions: unitary compounds of Alcohols 2; individual oocytes 1-10 (replicates)
T3 sequence (A0A6B9QIR2 1-390): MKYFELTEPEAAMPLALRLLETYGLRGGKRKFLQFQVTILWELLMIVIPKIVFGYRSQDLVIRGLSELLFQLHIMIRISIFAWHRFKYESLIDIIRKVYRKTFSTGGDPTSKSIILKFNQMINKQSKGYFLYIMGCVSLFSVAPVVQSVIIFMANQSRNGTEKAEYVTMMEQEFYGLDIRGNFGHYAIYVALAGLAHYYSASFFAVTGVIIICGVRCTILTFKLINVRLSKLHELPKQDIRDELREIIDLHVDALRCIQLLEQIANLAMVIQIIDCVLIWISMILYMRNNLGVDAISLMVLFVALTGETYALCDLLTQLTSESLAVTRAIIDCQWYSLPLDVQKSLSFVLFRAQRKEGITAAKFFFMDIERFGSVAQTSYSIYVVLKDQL
T3 sequence (Q178U6 1-478 partner): T1 sequence (Q178U6 1-478 partner)
From the text: as §1, §2, §3

CC(=O)OCCC(C)C [Isomyl acetate]
Normalized response, Average, unitary compounds of blend Terpenes 3 (AaegOR11): 0.0
Raw data (Responses in nA), unitary compounds of blend Terpenes 3 (AaegOR11): 0 nA
Normalized response, unitary compounds of blend Terpenes 3 (AaegOR11): 0.0

CC(C)=CCC/C(C)=C\CO [Nerol]
Raw data (Responses in nA), unitary compounds of blend Terpenes 3 (AaegOR11): 0 nA

C=C1CCC2(C(C)C)CC12 (stereo not drawn) [Sabiene]
Normalized response, Average, unitary compounds of blend Terpenes 3 (AaegOR11): 0.556
Raw data (Responses in nA), unitary compounds of blend Terpenes 3 (AaegOR11): 0 nA (8×) and 5 nA
Normalized response, unitary compounds of blend Terpenes 3 (AaegOR11): 0.0 (8×) and 5.0

C=C1CC/C=C(\C)CC[C@@H]2[C@@H]1CC2(C)C [beta-caryophyllene]
Raw data (Responses in nA), unitary compounds of blend Terpenes 3 (AaegOR11): 10 nA (2×) and 0 nA (6×) and 20 nA

OC1CCCC2CCCCC12 (stereo not drawn) [cis-decahydro-1-napthol, cis-Decahydro-1-napthol]
Raw Data (Responses in nA), concentration-response (AaegOR11; 1e-6 M): 10.0 nA
Raw Data (Responses in nA), concentration-response (AaegOR11; 5e-6 M): 15.0 nA and 10.0 nA and 20.0 nA
Raw Data (Responses in nA), concentration-response (AaegOR11; 1e-5 M): 15.0 nA and 10.0 nA
Raw Data (Responses in nA), concentration-response (AaegOR11; 0.0005 M): 90.0 nA and 60.0 nA and 100.0 nA and 50.0 nA and 65.0 nA
Raw Data (Responses in nA), concentration-response (AaegOR11; 0.001 M): 70.0 nA and 40.0 nA and 80.0 nA and 60.0 nA and 45.0 nA
EC50 (AaegOR11; AaegOR11/Orco expressing oocytes, TEVC, concentration-response of normalized current): ~68.4 µM and 68.4 µM
magnitude of response of AaegOR11 to unitary compounds (AaegOR11; AaegOR11/Orco expressing oocytes, TEVC, individual compounds): greater magnitude of response than (-)-fenchone or (+)-fenchone
Raw data (Responses in nA), unitary compounds of blend Terpenes 3 (AaegOR11): 70 nA and 100 nA and 30 nA (2×) and 40 nA (2×) and 85 nA and 150 nA and 110 nA
Raw data (Responses in nA), unitary compounds, additional oocytes (AaegOR11; six further oocytes in columns without head (fenchone comparison with cis-Decahydro-1-napthol)): 20 nA

CC12CCC(C1)C(C)(C)C2=O (stereo not drawn) [fenchone]
Secondary Ligand (AaegOR11; AaegOR11, secondary ligand identified during the functional characterizations): fenchone

CCC/C=C/C=O [trans-2-hexenal]
Raw data (Responses in nA) Oocyte 1 (AaegOR8; oocyte 1): 0.0 nA
Raw data (Responses in nA) Oocyte 2 (AaegOR8; oocyte 2): 0.0 nA
Raw data (Responses in nA) Oocyte 3 (AaegOR8; oocyte 3): 0.0 nA
Raw data (Responses in nA) Oocyte 4 (AaegOR8; oocyte 4): 0.0 nA
Raw data (Responses in nA) Oocyte 5 (AaegOR8; oocyte 5): 0.0 nA
Raw data (Responses in nA) Oocyte 6 (AaegOR8; oocyte 6): 0.0 nA
Raw data (Responses in nA) Oocyte 7 (AaegOR8; oocyte 7): 0.0 nA
Raw data (Responses in nA) Oocyte 8 (AaegOR8; oocyte 8): 0.0 nA
Raw data (Responses in nA), compounds of blend Alcohols 2 (AaegOR15): 0.0 nA and 15.0 nA and 30.0 nA (2×) and 10.0 nA and 40.0 nA (2×) and 50.0 nA (2×) and 60.0 nA
